This note sets out measurements from ChEMBL document CHEMBL1201862, “PubChem BioAssay data set” (2004).

Experiment in all cases: NCI anticancer screen, dose series, 48 h
Experiment [1] concerns M14.
Experiment [2] concerns COLO 205.
Experiment [3] concerns A549.
The subject of experiment [4] is K562.
In experiment [5] the test system is RPMI-8226.
Experiment [6] relates to SF-295.
The subject of experiment [7] is NCI-H226.
The test system of experiment [8] is HCC 2998.
For experiment [9], the system named is SK-MEL-28.
For experiment [10], the system named is OVCAR-8.
For experiment [11], the system named is KM12.
Experiment [12] deals with HCT-116.
Experiment [13] relates to TK-10.
Experiment [14] concerns MOLT-4.
The subject of experiment [15] is SK-OV-3.
Experiment [16] deals with SF-268.
Experiment [17] has as its system SNB-19.
For experiment [18], the system named is SF-539.
The test system of experiment [19] is CAKI-1.

SMILES strings stand for the structures.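 Compound exposure: 48 hours, 5 concentrations, 96-well plates. GI50 = concentration required for 50% inhibition of growth.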 Activity calls are given as the source filed them. Rule as the data show it: active = GI50 up to about 1.1 µM and inactive = higher.

`CCOC(=O)C1=C(C)C2C3C(=O)NC(=O)C3C1(C)C1C(=O)NC(=O)C21` (stereo unspecified): the GI50 in experiment [1], in experiment [2], in experiment [3], in experiment [4], in experiment [5] and in experiment [6] was > 100 µM (inactive) each time. The GI50 in [7] is < 0.01 µM (active); in experiment [8], > 100 µM (inactive); in [9] it was > 100 µM (inactive); in [10], > 100 µM (inactive); in [11], > 100 µM (inactive); in experiment [12], > 100 µM (inactive). Further, the GI50 in [13], in experiment [14], in experiment [15], in [16], in experiment [17] and in experiment [18] was > 100 µM (inactive) each time.

On to `CC1(C)OC2OC(/C=C/[N+](=O)[O-])C3OC(C)(C)OC3C2O1` (stereo unspecified), for which the GI50 was 12.3 µM (inactive) in experiment [1]; 4.6 µM (inactive) in experiment [2]; 20.3 µM (inactive) in experiment [3]; 6.84 µM (inactive) in [4]; 19.5 µM (inactive) in experiment [6]; 20.5 µM (inactive) in experiment [7]. In addition, the GI50 in experiment [8] was 16.8 µM (inactive); in [9], 18.2 µM (inactive); in experiment [19], 4.67 µM (inactive); in experiment [10], 8.47 µM (inactive); in [11] it was 17.2 µM (inactive); in [12], 9.06 µM (inactive). Moreover, the GI50 in experiment [13] was 5.26 µM (inactive); in experiment [14], 3.01 µM (inactive); in [15], 20.6 µM (inactive); in [16], 19.8 µM (inactive); in experiment [17] it was 18.5 µM (inactive); in experiment [18] it was 13.6 µM (inactive).

Consider `NNC(=S)N/N=C/C(=C/Nc1ccccc1)[N+](=O)[O-]`, for which the GI50 in [1] is > 100 µM (inactive); in experiment [2], > 100 µM (inactive); in [3], > 100 µM (inactive); in experiment [4] it was 10 µM (inactive); in [5], > 100 µM (inactive); in experiment [6] it was > 100 µM (inactive). In addition, the GI50 in experiment [7], in [8], in experiment [9], in [19], in [10] and in [12] was > 100 µM (inactive) throughout. The GI50 in [13], in experiment [15], in experiment [16], in experiment [17] and in [18] was > 100 µM (inactive) throughout.

As to `CC1=N/C(=C\c2ccc(/C=C3/N=C(C)OC3=O)cc2)C(=O)O1`, the GI50 in [1], in experiment [2], in experiment [3], in [4], in experiment [5] and in experiment [8] was > 100 µM (inactive) in each case. Also, the GI50 in [9], in experiment [19], in [10], in experiment [11], in experiment [12] and in [13] was > 100 µM (inactive) each time. Further, the GI50 in [14] was > 10 µM (inactive); in [15] it was > 100 µM (inactive); in [16] it was > 100 µM (inactive); in [17] it was > 100 µM (inactive); in [18], > 100 µM (inactive).

With `COc1ccc(Nc2nc3c(N)cc(C(F)(F)F)cc3nc2-c2ccccc2)cc1OC`, the GI50 in [1] was 28.6 µM (inactive); in experiment [2] it was 55.7 µM (inactive); in experiment [3], 22 µM (inactive); in experiment [4] it was 63 µM (inactive); in [6] it was 19.7 µM (inactive); in experiment [7], 24.2 µM (inactive). Further, the GI50 in [8] is 24.1 µM (inactive); in [9] it was 26.2 µM (inactive); in [19], 22.6 µM (inactive); in experiment [10], 15.1 µM (inactive); in experiment [11], 29.3 µM (inactive); in [12], 25.6 µM (inactive). Besides, the GI50 in experiment [13] was 21.3 µM (inactive); in experiment [14], 66.7 µM (inactive); in experiment [15] it was 12.7 µM (inactive); in experiment [16], 16.5 µM (inactive); in experiment [17] it was 19.8 µM (inactive); in experiment [18], 18.2 µM (inactive).

On to `COc1cccc(N2C(=O)c3c(c4[nH]c5ccccc5c4c4ccc(C(C)(C)C)cc34)C2=O)c1`, for which the GI50 in experiment [1], in experiment [2], in experiment [3], in experiment [4], in experiment [6] and in [7] was > 100 µM (inactive) in each case. Besides, the GI50 in experiment [8], in experiment [9], in [19], in experiment [10], in experiment [11] and in experiment [12] was > 100 µM (inactive) in each case. Besides, the GI50 was > 100 µM (inactive) in experiment [13]; 84.7 µM (inactive) in [14]; > 100 µM (inactive) in experiment [15]; > 100 µM (inactive) in [16]; > 100 µM (inactive) in [17]; > 100 µM (inactive) in experiment [18].

Consider `OC1(C(Sc2cc(C(F)(F)F)cc(C(F)(F)F)c2)Sc2cc(C(F)(F)F)cc(C(F)(F)F)c2)C=CCCC1` (stereo unspecified), for which the GI50 was 1.81 µM (inactive) in experiment [1]; 1.99 µM (inactive) in experiment [2]; 1.63 µM (inactive) in [3]; 1.53 µM (inactive) in experiment [4]; 1.47 µM (inactive) in experiment [5]; 1.86 µM (inactive) in [6]. The GI50 was 1.4 µM (inactive) in [8]; 2.71 µM (inactive) in experiment [9]; 1.79 µM (inactive) in experiment [19]; 2.12 µM (inactive) in experiment [10]; 1.73 µM (inactive) in experiment [11]; 2.12 µM (inactive) in experiment [12]. Moreover, the GI50 was 1.51 µM (inactive) in experiment [13]; 1.65 µM (inactive) in experiment [14]; 2.67 µM (inactive) in experiment [15]; 2.54 µM (inactive) in experiment [16]; 2.49 µM (inactive) in experiment [17].

For the compound `Cc1cccc(C2=NC(C)(C)C(C)(C)N=C2c2cccc(C)n2)n1`, the GI50 in experiment [1] is 71.6 µM (inactive); in [2] it was 67.5 µM (inactive); in [3] it was > 100 µM (inactive); in [4] it was 41.8 µM (inactive); in experiment [5] it was 34.6 µM (inactive); in [6], > 100 µM (inactive). For the same compound, the GI50 in experiment [7], in [8], in experiment [9], in experiment [19], in experiment [10] and in experiment [11] was > 100 µM (inactive) throughout. Also, the GI50 in experiment [12] is 35.4 µM (inactive); in experiment [13], > 100 µM (inactive); in [15], > 100 µM (inactive); in experiment [16], > 100 µM (inactive); in experiment [17], > 100 µM (inactive); in experiment [18], > 100 µM (inactive).
